A short description of this data set: Valia-Chien diffusion cell, trans-membrane diffusion of RhoB. Format: in vitro ADME. From the text:
A Valia-Chien cell apparatus separated by an artificial barrier membrane was used to compare the in vitro drug delivery kinetics of the small molecule Rhodamine B delivered via P407 and saline solution, both with and without perforations. The applied methods for measuring trans-membrane diffusion were adapted from the American Association of Pharmaceutical Scientists as well as the Federal Drug Administration recommendations for in vitro percutaneous absorption rate studies (EPA, Recommended Protocol For In Vitro Percutaneous Absorption Rate Studies, Federal Register Notices, 61(65):14773-14778, 1996. Agency Docket: OPPTS-42186A.)
P407 powder (Spectrum Chemical, Gardena, CA) was mixed with demineralized water and RhoB to create a 0.1 mM RhoB solution in 18% P407 by weight. The resulting mixture was stirred at room temperature and kept overnight in a refrigerator at 3 to 4° C. to facilitate dissolution of the P407 powder. At the chosen P407 concentration, the mixture transitioned into gel upon placement within the room-temperature testing apparatus.
Diffusion of RhoB through an artificial membrane barrier was performed using 9 mm clear unjacketed Valia-Chien diffusion cells (PermeGear Inc., Hellertown, PA) with 5 mL volumes and flat-ground joints. […] The Valia-Chien diffusion cells 800 were arranged horizontally, mitigating the effects of gravity on particle movement and allowing for active stirring of both the donor 810 and receptor compartments 820 by magnetic mini-stirrers 840 (HI 190M-1, Hanna Instruments, Woonsocket, RI). A 3D-printed adapter 850 was used as a conduit between the chambers 810, 820.
The donor chamber 810 was filled with 5.0 mL volumes of: (A) 0.1 mM RhoB in PBS or (B) 0.1 mM RhoB in 18% P407. An additional sample of donor solution was reserved for the calibration of fluorescence detection, as detailed below. Active stirring of the donor chamber 810 was performed for experiments utilizing PBS, but not those utilizing gelified P407. Initial filling of the donor chamber marked time zero for each experiment.
The receptor chamber 820 was filled with 5.0 mL of PBS prepared by dissolving 9.6 g of Dulbecco's Phosphate Buffered Saline powder (Sigma-Aldrich) in 1.0 L deionized water. An Eppendorf micropipette was used to withdraw 75 μL of fluid from the receptor chamber every 15 minutes, from 0 min to 165 min, for a total of 12 samples. The collected samples were placed in individual wells of a 96-well plate for further analysis. The withdrawn solution was replaced with 75 μL of PBS to prevent advection of fluid within the system. […] Active stirring of the receptor chamber 820 was performed for all experiments.
Whatman™ Grade 2 Qualitative Filter Paper with diameter 5.5 cm, thickness 190 μm and pore size 8.0 μm (Whatman Limited, England) was used as an artificial membrane 830 barrier separating the donor and receptor chambers. […] Using an artificial barrier controlled for pore size as well as membrane thickness. The filter paper was cut to fit a custom 3D-printed diffusion cell adapter, which was circumferentially sealed with general-purpose epoxy. Teflon tape was used to prevent leakage between the 3D-printed adapter and the joint, which were secured with a standard Valia-Chien cell clamp. The filter paper was equilibrated in PBS solution for 30 min prior to any contact with donor substance. […]

In the case of `CCN(CC)c1ccc2c(-c3ccccc3C(=O)O)c3ccc(=[N+](CC)CC)cc-3oc2c1.[Cl-]` [RhoB, Rhodamine B], the permeance is, setting by setting: (RhoB in P407, membrane with one 200 μm perforation) 3.0×10^−7 m s^−1; (RhoB in P407, unperforated artificial membrane) 2.2×10^−7 m s^−1; (RhoB in PBS, unperforated artificial membrane) 3.04×10^−6 m s^−1. Also, the “diffusion rate in P407 relative to saline (times lower)” value (after the initial burst release) is given as “more than 10 times”. Also, where the note is “saline as solvent, membranes with up to four 100 μm perforations vs unperforated”, the “increase in measured permeance” value turned out to be 1.5 fold.

These data come from patent US12263066B2, “Apparatuses, systems and methods for perforating and aspirating inner ear” (priority 2018, dated 2025).
